What was measured:
HBV = assay: Anti-HBV activity: intracellular HBV DNA by real-time PCR in HepG2.117 cell line; assay type: cell-based, Hepatitis B virus; details: HepG2.117 cells, HBV replication induced (absence of doxycycline), 3 days of treatment, mean value
Description: The anti HBV activity was measured using the HepG2.117 cell line, a stable, inducibly HBV producing cell line, which replicates HBV in the absence of doxycycline (Tet-off system). The HepG2 cell line is available from ATCCR under number HB-8065 Transfection of the HepG2 cell line can be as described in Sun and Nassal 2006 Journal of Hepatology 45 (2006) 636-645 “Stable HepG2- and Huh7-based human hepatoma cell lines for efficient regulated expression of infectious hepatitis B virus”.
For the antiviral assay, HBV replication was induced, followed by a treatment with serially diluted compound in 96-well plates. After 3 days of treatment, the antiviral activity was determined by quantification of intracellular HBV DINA using real-time PCR and an HBV specific primer set and probe.

[1] = Cytotoxicity, cell viability by ATPlite Luminescence Assay; assay type: cell-based, human; details: human, HepG2 or HepG2 117 cells, 3-days incubation (unless marked *), mean value
Description: (§1) Cytotoxicity of the compounds was tested using HepG2 or HepG2 117 cells, incubated for 3 or 4 days in the presence of compounds. The viability of the cells was assessed using the PERKIN ELMER ATPlite Luminescence Assay System.”

HepG2 or HepG2 117 cells = assay: as above; assay type: cell-based, human; details: 3-days incubation (unless marked *), mean value
Description: as §1

[2] = Hepatitis B virus, HepG2.117, 72 h

Structure (SMILES)	EC50 (HBV; [2]) [µM]	CC50 at 3 days [1] [µM]	EC50 (HBV) [µM]	CC50 (HepG2 or HepG2 117 cells) [µM]
CNC(=O)[C@@H]1Cn2nc3c(c2C(=O)N1[C@@H](C)c1ccc(OC(F)F)cc1)CN(C(=O)c1ccc(Cl)c(C#N)c1)[C@H](C)C3 (single isomer, unassigned) [Compound 2B, (3R,8S*)-2-(4-chloro-3-cyanobenzoyl)-9-((S*)-1-(4-(difluoromethoxy)phenyl)ethyl)-N,3-dimethyl-10-oxo-1,2,3,4,7,8,9,10-octahydropyrido[4′,3′:3,1]pyrazolo[1,5-a]pyrazine-8-carboxamide]	0.183	> 50	–	–
CC1Cn2nc3c(c2C(=O)N1Cc1ccc(OC(F)F)cc1)CN(C(=O)c1ccc(Cl)c(Cl)c1)[C@H](C)C3 (single isomer, unassigned) [Compound 6A, (3R,8R*)-2-(3,4-dichlorobenzoyl)-9-(4-(difluoromethoxy)benzyl)-3,8-dimethyl-1,2,3,4,8,9-hexahydropyrido[4′,3′:3,4]pyrazolo[1,5-a]pyrazin-10(7H)-one]	0.032	4.5	–	–
CC(c1ccc(OC(F)F)cc1)N1CC(CO)n2nc3c(c2C1=O)CN(C(=O)c1ccc(Cl)c(C#N)c1)[C@H](C)C3 (stereo partly drawn) [Compound 12, 2-Chloro-5-((3R)-9-(1-(4-(difluoromethoxy)phenyl)ethyl)-7-(hydroxymethyl)-3-methyl-10-oxo-1,2,3,4,7,8,9,10-octahydropyrido[4′,3′:3,4]pyrazolo[1,5-a]pyrazine-2-carbonyl)benzonitrile]	0.068	24.9	–	–
CC(=O)NC[C@@H]1Cn2nc3c(c2C(=O)N1[C@@H](C)c1ccc(OC(F)F)cc1)CN(C(=O)c1ccc(Cl)c(C#N)c1)[C@H](C)C3 (single isomer, unassigned) [Compound 1B, N-(((3R,8R*)-2-(4-chloro-3-cyanobenzoyl)-9-((S*)-1-(4-(difluoromethoxy)phenyl)ethyl)-3-methyl-10-oxo-1,2,3,4,7,8,9,10-octahydropyrido[4′,3′:3,4]pyrazolo[1,5-a]pyrazin-8-yl)methyl)acetamide]	–	> 50	1.48	–
CNC(=O)[C@H]1CN([C@@H](C)c2ccc(OC(F)F)cc2)C(=O)c2c3c(nn21)C[C@@H](C)N(C(=O)c1ccc(Cl)c(C#N)c1)C3 (single isomer, unassigned) [Compound 11B, (3R,7R*)-2-(4-chloro-3-cyanobenzoyl-9-((S*)-1-(4-(difluoromethoxy)phenyl)ethyl)-N,3-dimethyl-10-oxo-1,2,3,4,7,8,9,10-octahydropyrido[4′,3′:3,4]pyrazolo[1,5-a]pyrazine-7-carboxamide]	0.058	> 50	–	–
CNC(=O)CC[C@H]1Cn2nc3c(c2C(=O)N1Cc1ccc(OC(F)F)cc1)CN(C(=O)c1ccc(Cl)c(C#N)c1)[C@H](C)C3 [Compound 5, 3-((3R,8S)-2-(4-chloro-3-cyanobenzoyl)-9-(4-(difluoromethoxy)benzyl)-3-methyl-10-oxo-1,2,3,4,7,8,9,10-octahydropyrido[4′3′:3,4]pyrazolo[1,5-a]pyrazin-8-yl)-N-methylpropanamide]	0.414	> 50	–	–
CC(c1ccc(OC(F)F)cc1)n1ncn2nc3c(c2c1=O)CN(C(=O)c1ccc(Cl)c(C(F)(F)F)c1)[C@H](C)C3 (stereo in doubt) [Compound 7B, (R)-9-(4-chloro-3-(trifluoromethyl)benzoyl)-2-((S*)-1-(4-(difluoromethoxy)phenyl)ethyl)methyl-7,8,9,10-tetrahydropyrido[4′,3′:3,4]pyrazolo[1,5-d][1,2,4]triazin-1(2H)-one]	–	–	0.262	> 50
CC(c1ccc(OC(F)F)cc1)n1ccn2nc3c(c2c1=O)CN(C(=O)c1ccc(Cl)c(Cl)c1)[C@H](C)C3 (single isomer, unassigned) [Compound 10A, (R)-2-(3,4-dichlorobenzoyl)-9-((R*)-1-(4-(difluoromethoxy)phenyl)ethyl)-3-methyl-1,2,3,4-tetrahydropyrido[4′,3′:3,4]pyrazolo[1,5-a]pyrazin-10(9H)-one]	–	32.8	0.072	–
CC(=O)NC[C@@H]1CN([C@@H](C)c2ccc(OC(F)F)cc2)C(=O)c2c3c(nn21)C[C@@H](C)N(C(=O)c1ccc(Cl)c(C#N)c1)C3 (single isomer, unassigned) [Compound 13B, N-(((3R,7R*)-2-(4-chloro-3-cyanobenzoyl)-9(S*)-1-(4-(difluoromethoxy)phenyl)ethyl)-3-methyl-10-oxo-1,2,3,4,7,8,9,10-octahydropyrido[4′,3′:3,4]pyrazolo[1,5-a]pyrazin-7-yl)methyl)acetamide]	0.167	> 50	–	–
CC(c1ccc(OC(F)F)cc1)n1ncn2nc3c(c2c1=O)CN(C(=O)c1ccc(Cl)c(C(F)(F)F)c1)[C@H](C)C3 (single isomer, unassigned) [Compound 7A, (R)-9-(4-Chloro-3-(trifluoromethyl)benzoyl)-2-((R*)-1-(4-(difluoromethoxy)phenyl)ethyl)-8-methyl-7,8,9,10-tetrahydropyrido[4′,3′:3,4]pyrazolo[1,5-d][1,2,4]triazin-1(2H)-one]	0.194	46.3	–	–
CC(c1ccc(OC(F)F)cc1)n1ccn2nc3c(c2c1=O)CN(C(=O)c1ccc(Cl)c(Cl)c1)[C@H](C)C3 (single isomer, unassigned) [Compound 10B, (R)-2-(3,4-dichlorobenzoyl)-9-((S*)-1-(4-(difluoromethoxy)phenyl)ethyl)-3-methyl-1,2,3,4-tetrahydropyrido[4′,3′:3,4]pyrazolo[1,5-a]pyrazin-10(9H)-one]	–	–	0.294	> 50
CNC(=O)[C@H]1Cn2nc3c(c2C(=O)N1Cc1ccc(OC(F)F)cc1)CN(C(=O)c1ccc(Cl)c(C#N)c1)[C@H](C)C3 [Compound 3A]	0.427	> 50	–	–
CC(c1ccc(OC(F)F)cc1)N1C(=O)c2c3c(nn2CC1CO)C[C@@H](C)N(C(=O)c1ccc(Cl)c(C#N)c1)C3 (stereo partly drawn) [Compound 4, 2-Chloro-5-((3R)-9-(1-(4-(difluoromethoxy)phenyl)ethyl)-8-(hydroxymethyl)-3-methyl-10-oxo-1,2,3,4,7,8,9,10-octahydropyrido[4′,3′:3,4]pyrazolo[1,5-a]pyrazine-2-carboaryl)benzonitrile]	0.227	25	–	–
CC(=O)NC[C@@H]1Cn2nc3c(c2C(=O)N1[C@@H](C)c1ccc(OC(F)F)cc1)CN(C(=O)c1ccc(Cl)c(C#N)c1)[C@H](C)C3 (single isomer, unassigned) [Compound 1D, N-(((3R,8S*)-2-(4-chloro-cyanobenzoyl)-9-((S*)-1-(4-(difluoromethoxy)phenyl)ethyl)-3-methyl-10-oxo-1,2,3,4,7,8,9,10-octahydropyrido[4′,3′:3,4]pyrazolo[1,5-a]pyrazin-8-yl)methyl)acetamide]	–	–	0.491	> 50
CC(=O)NC[C@H]1CN([C@@H](C)c2ccc(OC(F)F)cc2)C(=O)c2c3c(nn21)C[C@@H](C)N(C(=O)c1ccc(Cl)c(C#N)c1)C3 (single isomer, unassigned) [Compound 13D, N-(((3R,7S*)-2-(4-chloro-3-cyanobenzoyl)-9-((S*)-1-(4-(difluoromethoxy)phenyl)ethyl)-3-methyl-10-oxo-1,2,3,4,7,8,9,10-octahydropyrido[4′,3′:3,4]pyrazolo[1,5-a]pyrazin-7-yl)methyl)acetamide]	0.344	> 50	–	–
CC(c1ccc(OC(F)F)cc1)n1ncn2nc3c(c2c1=O)CN(C(=O)c1ccc(Cl)c(C#N)c1)[C@H](C)C3 (single isomer, unassigned) [Compound 9B, 2-chloro-5-((R)-2-((S*)-1-(4-(difluoromethoxy)phenyl)ethyl)-8-methyl-1-oxo-1,2,7,8,9,10-hexahydropyrido[4′,3′:3,4]pyrazolo[1,5-d][1,2,4]triazine-9-carbonyl)benzonitrile]	0.13	> 50	–	–
CC(c1ccc(OC(F)F)cc1)n1ncn2nc3c(c2c1=O)CN(C(=O)c1ccc(Cl)c(C#N)c1)[C@H](C)C3 (stereo in doubt) [Compound 9A, 2-Chloro-S—((R)-2-((R*)-1-(4-(difluoromethoxy)phenyl)ethyl)-8-methyl-1-oxo-1,2,7,8,9,10-hexahydropyrido[4′,3′:3,4]pyrazolo[1,5-d][1,2,4]triazine-9-carbonyl)benzonitrile]	–	–	0.553	> 50
CC(c1ccc(OC(F)F)cc1)n1ncn2nc3c(c2c1=O)CN(C(=O)c1ccc(Cl)c(Cl)c1)[C@H](C)C3 (single isomer, unassigned) [Compound 8A, (R)-9-(3,4-Dichlorobenzoyl)-2-((R*)-1-(4-(difluoromethoxy)phenyl)ethyl)-8-methyl-7,8,9,10-tetrahydropyrido[4′,3′:3,4]pyrazolo[1,5-d][1,2,4]triazin-1(2H)-one]	0.067	> 50	–	–
